Key:
[1] = system: transformed tobacco seedlings; assay: Kanamycin resistance of progeny of transformed tobacco (Example 22); type: in vivo, Nicotiana tabacum
Experimental: Growth medium was prepared from Murishige minimal organics medium (Gibco Laboratories, Grand Island, N.Y.), 8 g/l agar, supplemented with T vitamins (50 ppb biotin, 0.5 ppm pyridoxine HCl, 0.5 ppm thiamine HCl, 5 ppm nicotinic acid, 0.5 ppm folic acid, 2 ppm glycine, 100 ppm myo-inositol), sterilized and placed into sterile PlantCon plant tissue culture containers (Flow Laboratories, McLean, Va.). Tobacco seed obtained from the self-pollination of the primary transformants was surface sterilized by a treatment of not more than 30 min in 20% chlorine bleach, 0.1% sodium dodecyl sulfate, followed by rinsing in distilled water, and placed on the surface of the medium in the sterile containers. Following this treatment, the seed was allowed to germinate and grow under illumination (100 microeinsteins·m^-2 ·s^-1), at 22° C.
The number of loci where t-DNA was incorporated into the genome of the tobacco was determined by segregation analysis of kanamycin resistance in the next generation of progeny. Seed from the self pollination of the primary transformants was grown as described above on medium supplemented with 200 ppm kanamycin sulfate (Sigma). After 21 days, resistant (transformed) plants were unaffected compared to control plants, whereas sensitive plants were smaller, partially chlorotic, and poorly rooted. Determination of the number of genetic loci of the primary transformants was based on the segregation of the kanamycin resistance trait.
Copy number determination is from kanamycin sensitive segregation analysis of about 100 seed.

[2] = system: Arabidopsis thaliana seedlings; assay: Seed germination assay of transgenic Arabidopsis (Example 26); type: in vivo; conditions: Kanamycin 50 mg/l
Experimental: T2 seed was harvested from selected putative transformants and sown on GM medium containing 50 mg/l kanamycin and that containing 5 ppb 10015. Plates were sealed with filter tape, cold treated for 2 or more days at 4° C., and then incubated for 10 to 20 days at 23° C. under constant illumination as described above. Seedlings were scored as resistant (green, true leaves develop) and sensitive (no true leaves develop). […] The percent of resistant seedlings is inversely proportional with the two selections. Kanamycin is a positive selection for those seedlings that carry the foreign DNA.
Selected T2 seedlings that were kanamycin resistant were transplanted to soil and were grown to maturity at 21° C. daytime (14 hours) 18° C. nighttime (10 hours) at 65-80% relative humidity. T3 seed was collected, sterilized, and germinated on GM medium containing 50 mg/l kanamycin and that containing 5 ppb 10015. Plates were sealed with filter tape, cold treated for 2 or more days at 4° C., and then incubated for 10 to 20 days at 23° C. under constant illumination as described above. Two of the six plants produced seed that was 100% resistant to kanamycin and 100% sensitive to 10015; they are homozygous for the inserted DNA. The other four parents are heterozygous and show an inverse proportion of kanamycin and 10015 resistant seedlings. […] Therefore, seedlings expressing the P450SU1 gene can be negatively selected.
Germination assays of homozygous seed on various concentrations of 10015 were performed to assay the relative sensitivity to 10015 produced by the three different promoters and between independent transformants. Seed was sterilized, sown on GM medium with 0, 0.5, 1, 2, 5, 10 and 20 ppb 10015, incubated, and scored as described above. In addition, seedlings are rated on a scale of one to three for the amount of growth.
Over 500 seed that are homozygous for the P450SU1 coding region were sown on the same plates. The plates were sealed, cold-treated, and incubated as previously described. […] Wild type seedlings were unaffected by the dying transformed seedlings. In addition, when greater than 10,000 seed of a homozygous Cab-SU111 plant was sown on GM medium with 10 ppb 10015, then cold-treated and incubated as described above, eighteen seedlings were resistant to 10015 and were unaffected by neighboring seedlings.

NC[C@H]1O[C@H](O[C@H]2[C@H](O)[C@@H](O[C@H]3O[C@H](CO)[C@@H](O)[C@H](N)[C@H]3O)[C@H](N)C[C@@H]2N)[C@H](O)[C@@H](O)[C@@H]1O [Kanamycin, reference compound]
Kanamycin Resistant (plants demonstrating result/total plants) ([1]; AGS502 (Control)): 6/9 | Kanamycin Resistant (plants demonstrating result/total plants) ([1]; SuFe21.2): 7/10 | Kanamycin Resistant (plants demonstrating result/total plants) ([1]; SuFe21.5): 8/10 | Kanamycin Resistant (plants demonstrating result/total plants) ([1]; SuFe21.6): 9/10 | Kanamycin Resistant (plants demonstrating result/total plants) ([1]; SuFe21.7): 7/10 | Kanamycin Resistant (plants demonstrating result/total plants) ([1]; SuFe21.8): 8/9 | Kanamycin Resistant (plants demonstrating result/total plants) ([1]; SuFell.1): 7/9 | Kanamycin Resistant (plants demonstrating result/total plants) ([1]; SuFell.11): 7/8 | Kanamycin Resistant (plants demonstrating result/total plants) ([1]; SuFell.3): 5/10 | Kanamycin Resistant (plants demonstrating result/total plants) ([1]; SuFell.4): 7/10 | Kanamycin Resistant (plants demonstrating result/total plants) ([1]; SuFell.7): 9/10 | Kanamycin Resistant (plants demonstrating result/total plants) ([1]; SuFell.8): 10/10 | #R number of resistant seedlings ([2]; T2 seed ID 12-1, pCab-SU111): 11 | #S number of sensitive seedlings ([2]; T2 seed ID 12-1, pCab-SU111): 6 | % R percent of seedlings which are resistant ([2]; T2 seed ID 12-1, pCab-SU111): 65% | #R number of resistant seedlings ([2]; T2 seed ID 12-2, pCab-SU111): 0 | #S number of sensitive seedlings ([2]; T2 seed ID 12-2, pCab-SU111): 12 | % R percent of seedlings which are resistant ([2]; T2 seed ID 12-2, pCab-SU111): 0% | #R number of resistant seedlings ([2]; T2 seed ID 12-4, pCab-SU111): 13 | #S number of sensitive seedlings ([2]; T2 seed ID 12-4, pCab-SU111): 18 | % R percent of seedlings which are resistant ([2]; T2 seed ID 12-4, pCab-SU111): 42% | #R number of resistant seedlings ([2]; T2 seed ID 12-5, pCab-SU111): 0 | #S number of sensitive seedlings ([2]; T2 seed ID 12-5, pCab-SU111): 20 | % R percent of seedlings which are resistant ([2]; T2 seed ID 12-5, pCab-SU111): 0% | #R number of resistant seedlings ([2]; T2 seed ID 12-6, pCab-SU111): 15 | #S number of sensitive seedlings ([2]; T2 seed ID 12-6, pCab-SU111): 9 | % R percent of seedlings which are resistant ([2]; T2 seed ID 12-6, pCab-SU111): 62% | #R number of resistant seedlings ([2]; T2 seed ID 12-7, pCab-SU111): 21 | #S number of sensitive seedlings ([2]; T2 seed ID 12-7, pCab-SU111): 7 | % R percent of seedlings which are resistant ([2]; T2 seed ID 12-7, pCab-SU111): 75% | #R number of resistant seedlings ([2]; T2 seed ID 12-8, pCab-SU111): 6 | #S number of sensitive seedlings ([2]; T2 seed ID 12-8, pCab-SU111): 5 | % R percent of seedlings which are resistant ([2]; T2 seed ID 12-8, pCab-SU111): 55% | #R number of resistant seedlings ([2]; T2 seed ID 12-9, pCab-SU111): 13 | #S number of sensitive seedlings ([2]; T2 seed ID 12-9, pCab-SU111): 3 | % R percent of seedlings which are resistant ([2]; T2 seed ID 12-9, pCab-SU111): 81% | #R number of resistant seedlings ([2]; T2 seed ID 12-10, pCab-SU111): 0 | #S number of sensitive seedlings ([2]; T2 seed ID 12-10, pCab-SU111): 21 | % R percent of seedlings which are resistant ([2]; T2 seed ID 12-10, pCab-SU111): 0% | #R number of resistant seedlings ([2]; T2 seed ID 12-11, pCab-SU111): 0 | #S number of sensitive seedlings ([2]; T2 seed ID 12-11, pCab-SU111): 9 | % R percent of seedlings which are resistant ([2]; T2 seed ID 12-11, pCab-SU111): 0% | #R number of resistant seedlings ([2]; T3 seed ID 12-1-1, pCab-SU111): 184 | #S number of sensitive seedlings ([2]; T3 seed ID 12-1-1, pCab-SU111): 0 | % R percent of seedlings which are resistant ([2]; T3 seed ID 12-1-1, pCab-SU111): 100% | #R number of resistant seedlings ([2]; T3 seed ID 12-1-2, pCab-SU111): 191 | #S number of sensitive seedlings ([2]; T3 seed ID 12-1-2, pCab-SU111): 0 | % R percent of seedlings which are resistant ([2]; T3 seed ID 12-1-2, pCab-SU111): 100% | #R number of resistant seedlings ([2]; T3 seed ID 12-1-3, pCab-SU111): 136 | #S number of sensitive seedlings ([2]; T3 seed ID 12-1-3, pCab-SU111): 41 | % R percent of seedlings which are resistant ([2]; T3 seed ID 12-1-3, pCab-SU111): 77% | #R number of resistant seedlings ([2]; T3 seed ID 12-1-4, pCab-SU111): 98 | #S number of sensitive seedlings ([2]; T3 seed ID 12-1-4, pCab-SU111): 39 | % R percent of seedlings which are resistant ([2]; T3 seed ID 12-1-4, pCab-SU111): 72% | #R number of resistant seedlings ([2]; T3 seed ID 12-1-5, pCab-SU111): 161 | #S number of sensitive seedlings ([2]; T3 seed ID 12-1-5, pCab-SU111): 56 | % R percent of seedlings which are resistant ([2]; T3 seed ID 12-1-5, pCab-SU111): 74% | #R number of resistant seedlings ([2]; T3 seed ID 12-1-6, pCab-SU111): 254 | #S number of sensitive seedlings ([2]; T3 seed ID 12-1-6, pCab-SU111): 75 | % R percent of seedlings which are resistant ([2]; T3 seed ID 12-1-6, pCab-SU111): 77% | #R number of resistant seedlings ([2]; WT): 0 | #S number of sensitive seedlings ([2]; WT): 77 | % R percent of seedlings which are resistant ([2]; WT): 0%
